# According to patent publication US20220259167A1 (UNIVERSITY HEALTH NETWORK, priority 2019, published 2022):
# Read-outs that look alike come from different tables or passages of the source.
# Tests used:
# [1] = target: biotinylated amyloid-beta(1-42) (bioAbeta42) (Homo sapiens, UniProt P05067); assay type: biochemical
# SIM-A9 cells = test: Anti-inflammation assay: TNF-α production from LPS stimulated SIM-A9 cells (ELISA); assay type: cell-based; conditions: compound 2.7 μM; LPS stimulated SIM-A9 cells; read-out: TNF-α Inhibition
# [2] = Example 5, ND = inhibition activity not detected over 200 μM, read-out: Inhibition of Aβ oligomerization, μM IC50
# [3] = Example 2, read-out: Anti-Aβ oligomerization IC50
# Chain of biotinylated amyloid-beta(1-42) (bioAbeta42) (P05067 672-713): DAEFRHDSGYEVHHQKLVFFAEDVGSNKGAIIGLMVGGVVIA
SMILES,"IC50 [1, 2] [µM]","IC50 [1, 3] [µM]",inhibition at 2.7 µM (SIM-A9 cells) [%]
"NC(=O)c1cc(C(=O)O)c(NCc2ccco2)cc1Cl [SIV-W164, 5-Carbamoyl-4-chloro-2((furan-2-ylmethyl)amino) Benzoic Acid]",> 200,–,–
COc1ccc(C(=O)O)c(NCc2ccco2)c1 [Compound 5-LV-54A],–,–,16
Cc1ccc(CNc2cc(F)ccc2C(O)C(F)(F)F)c(C)c1 (centres unmarked) [WW-024],–,–,11.2
"COc1ccc(C(=O)O)c(NCc2ccccc2)c1 [Compound 5-LV-54B, 2-(Benzylamino)-4-methoxybenzoic Acid]",–,–,30
"O=C(O)c1cc(C(=O)N2CCOCC2)c(Cl)cc1NCc1ccco1 [SIV-W166, 4-Chloro-2-((furan-2-ylmethyl)amino)-5-(morpholine-4-carbonyl)benzoic acid]",> 200,–,25
"COC(=O)c1cc(C(=O)Nc2ccccc2)c(Cl)cc1NCc1ccco1 [SIV-W178, Methyl 4-chloro-2-((furan-2-ylmethyl)amino)-5-(phenylcarbamoyl)benzoate]",–,–,12
"O=C(O)c1cc(C(=O)N2CCCCC2)c(Cl)cc1NCc1ccco1 [SIV-W167, 4-Chloro-2-((furan-2-ylmethyl)amino)-5-(piperidine-1-carbonyl)benzoic Acid]",> 200,–,–
"CNC(=O)c1cc(C(=O)OC)c(NCc2ccco2)cc1Cl [SIV-W155, Methyl 4-chloro-2-((furan-2-ylmethyl)amino)-5-(methylcarbamoyl)benzoate]",–,–,20
"O=C(O)c1ccc(Cl)cc1NCc1ccccc1 [LD3-305, 2-(Benzylamino)-4-chlorobenzoic Acid]",–,–,30
"O=C(O)c1ccc(Cl)cc1NCc1ccoc1 [LD3-310, 4-Chloro-2-((furan-3-ylmethyl)amino)benzoic Acid]",–,–,24
COC(=O)c1cc(S(N)(=O)=O)c(Cl)cc1NCc1ccco1 [WW-161],–,–,24
"CNC(=O)c1cc(C(=O)O)c(NCc2ccco2)cc1Cl [SIV-W168, 4-Chloro-2-((furan-2-ylmethyl)amino)-5-(methylcarbamoyl)benzoic Acid]",> 200,–,27
"O=C(O)c1ccc(Cl)cc1NCCc1ccccc1 [LD3-306, 4-Chloro-2-(phenethylamino)benzoic Acid]",–,–,21
"O=C(O)c1ccc(Cl)cc1NCc1cccs1 [LD3-309, 4-Chloro-2-((thiophen-2-ylmethyl)amino)benzoic Acid]",–,–,18
"CCNC(=O)c1cc(C(=O)O)c(NCc2ccco2)cc1Cl [SIV-W174, 4-Chloro-5-(ethylcarbamoyl)-2((furan-2-ylmethyl)amino)benzoic Acid]",> 200,–,21
COc1c(C)ccc(CNc2cc(F)ccc2C(O)C(F)(F)F)c1OC (centres unmarked) [WW-028],–,–,19.9
"COC(=O)c1cc(C(=O)N2CCCCC2)c(Cl)cc1NCc1ccco1 [SIV-W160, Methyl 4-chloro-2-((furan-2-ylmethyl)amino)-5-(piperidine-1-carbonyl)benzoate]",–,–,25
"CCNC(=O)c1cc(C(=O)OC)c(NCc2ccco2)cc1Cl [SIV-W172, Methyl 4-chloro-5-(ethylcarbamoyl)-2-((furan-2-ylmethyl)amino)benzoate]",–,–,18
"CN(C)C(=O)c1cc(C(=O)O)c(NCc2ccco2)cc1Cl [SIV-W173, 4-Chloro-5-(dimethylcarbamoyl)-2((furan-2-ylmethyl)amino)benzoic Acid]",> 200,–,25
"O=C(Nc1ccccc1)c1cc(C(=O)O)c(NCc2ccco2)cc1Cl [SIV-W179, 4-Chloro-2((furan-2-ylmethyl)amino)-5-(phenylcarbamoyl)benzoic Acid]",> 200,–,22
COc1ccc(C(=O)O)c(NCc2ccoc2)c1 [Compound 5-LV-56A],–,–,32

# Second part, led by results:
"IC50 [1, 2] [µM]","IC50 [1, 3] [µM]",SMILES,inhibition at 2.7 µM (SIM-A9 cells) [%]
117 ± 3.95,–,"CNS(=O)(=O)c1cc(CO)c(NCc2ccco2)cc1Cl [WW109, 2-Chloro-4-((furan-2-ylmethyl)amino)-5-(hydroxymethyl)-N-methylbenzenesulfonamide]",21
137 ± 11.9,–,"CCNS(=O)(=O)c1cc(C(=O)O)c(NCc2ccco2)cc1Cl [WW057, 4-Chloro-5-(N-ethylsulfamoyl)-2-((furan-2-ylmethyl)amino) Benzoic Acid]",–
130 ± 25.8,–,"O=C(O)c1ccc(F)cc1NCc1ccco1 [WW071, 4-Fluoro-2-((furan-2-ylmethyl)amino)benzoic Acid]",–
> 200,–,"O=C(O)c1cc(S(=O)(=O)NCc2ccccc2)c(Cl)cc1NCc1ccco1 [WW035, 5-(N-benzylsulfamoyl)-4-chloro-2-((furan-2-ylmethyl)amino)benzoic Acid]",–
116 ± 13.8,–,"O=C(O)c1cc(S(=O)(=O)NC2CCCCC2)c(Cl)cc1NCc1ccco1 [WW082, 4-Chloro-5-(N-cyclohexylsulfamoyl)-2-((furan-2-ylmethyl)amino) Benzoic Acid]",11
21.9 ± 7.36,21.7,"CN(Cc1ccccc1)S(=O)(=O)c1cc(C(=O)O)c(NCc2ccco2)cc1Cl [WW052, 5-(N-Benzyl-N-methylsulfamoyl)-4-chloro-2-((furan-2-ylmethyl)amino) benzoic Acid]",24.1
> 200,–,"O=C(O)c1cc(S(=O)(=O)NC2CC2)c(Cl)cc1NCc1ccco1 [WW030, 4-Chloro-5-(N-cyclopropylsulfamoyl)-2-((furan-2-ylmethyl)amino)benzoic Acid]",–
154 ± 33.8,–,"O=C(O)c1ccc(Br)cc1NCc1ccco1 [WW073, 4-Bromo-2-((furan-2-ylmethyl)amino) Benzoic Acid]",27
> 200,–,"COc1ccc(CNS(=O)(=O)c2cc(C(=O)O)c(NCc3ccco3)cc2Cl)cc1 [WW063, 4-Chloro-2-((furan-2-ylmethyl)amino)-5-(N-(4-methoxybenzyl)sulfamoyl) Benzoic Acid]",–
> 200,–,"Cc1ccc(CNS(=O)(=O)c2cc(C(=O)O)c(NCc3ccco3)cc2Cl)cc1 [WW065, 4-Chloro-2-((furan-2-ylmethyl)amino)-5-(N-(4-methylbenzyl)sulfamoyl) Benzoic Acid]",20
70.5 ± 15.7,–,CNS(=O)(=O)c1cc(-c2nnn[nH]2)c(NCc2ccco2)cc1Cl [WW121],2
> 200,–,"O=C(O)c1cc(S(=O)(=O)NCCc2ccccc2)c(Cl)cc1NCc1ccco1 [WW056, 4-Chloro-2-((furan-2-ylmethyl)amino)-5-(N-phenethylsulfamoyl) Benzoic Acid]",13
> 200,–,"CNS(=O)(=O)c1cc(-c2noc(=O)[nH]2)c(NCc2ccco2)cc1Cl [WW187, 2-Chloro-4-((furan-2-ylmethyl)amino)-N-methyl-5-(5-oxo-2,5-dihydro-1,2,4-oxadiazol-3-yl)benzenesulfonamide]",20
41.1 ± 20.4,38.5,"CC(NS(=O)(=O)c1cc(C(=O)O)c(NCc2ccco2)cc1Cl)c1ccccc1 (centres unmarked) [WW053, 4-Chloro-2-((furan-2-ylmethyl)amino)-5-(N-(1-phenylethyl)sulfamoyl) benzoic Acid]",–
